The source of these data is patent US6297216A, “Compounds for reversing drug resistance” (Solvo Biotechnology, priority 1997, dated 2001).

For data set [1], the target named is T1, MDR1 (Homo sapiens, UniProt P08183).
A short description of data set [2]: In vivo acute and subacute toxicity. As to conditions: rats, two-week follow-up. Also on record: species or system rat. Here is the method: The safety of Reversins for human administration can be confirmed in appropriate animal models. For example, the in vivo acute and subacute toxicity of Reversins was examined in laboratory rats. Reversins 121 and 205 solutions were prepared and administered as follows. Type A solutions contained 50 μg/ml Reversin 121 or 205 in 20% ethanol in physiological saline. Type B solutions contained 1 mg/ml in glycerol, containing 10% ethanol. Type A solutions (0.5 ml) were administered intravenously to three laboratory rats weighing 200-250 g each (about 100-125 μg/kg) twice daily for 3 days. Type B solutions (0.5 ml) were given to similar rats (2-2.5 mg/kg) by intraperitoneal injection, twice daily for three days. Control rats received the same solutions without the Reversins.

The test system of the next data set is KBV1 cells. Put plainly: Cytotoxicity of Reversin alone in multidrug-resistant KBV1 cells. It is filed as cell-based, human. As to conditions: MDR1-expressing cells, FIG. 11(A). As to the method:
(§1) NIH 3T3 cells were cultured under standard conditions in D-MEM medium. MDR1-transfected cells (NIH MDR1 G185) were prepared and characterized for their drug-resistant properties as described (Ambdukar et al. Proc. Natl. Acad. Sci. USA 89:8472-8476, 1992; Bruggemann et al. J. Biol. Chem. 267:21020-21026, 1992; Sarkadi et al. 1992 supra). Before each experiment the cells were trypsinized, then washed and stored in D-MEM medium at 37° C. KBV1 (MDR1^+) and KB3 (MDR1^-) human tumor cells were also cultured in D-MEM, which K562 human tumor cells were grown in RPMI medium, supplemented with 10% FCS.
In these studies, adriamycin, vincristine, and vinblastine, in originally ineffective concentrations, become effectively cytotoxic in the presence of 1-10 μg/ml of Reversins 121 or 205. FIGS. 10A and 10B present such an experiment for Reversin 205 using K562 human erythroblastoid tumor cells and their adriamycin-selected multidrug-resistant subline. FIGS. 11A and 11B are similar experiments with the […] tumor cells KB3 and KBV1, the latter being a multidrug resistant subline. […] Such a collateral toxic effect (which may be due to the ATP-consuming futile functioning of the drug transporter) can be greatly advantageous in treating drug-resistant tumors.

Data set [3] has as its target T1, MDR1. The source holds these as a separate data set.
Source text: (§5) The second assay is based on the measurement of fluorescent dye uptake into intact cells. […] These hydrophobic dye esters are non-fluorescent outside the cell are cleaved by intracellular esterases into hydrophilic fluorescent free acids.
Data set [4] deals with multidrug-resistant human tumor cell lines. Kind of data set: Enhancement of cytotoxicity of drugs in multidrug-resistant human tumor cell lines. It is filed as cell-based. Particulars: K562 MDR and KBV1 sublines, FIGS. 10-11. Here is the method:
as §1
Another method for assessing the ability of Reversins to inhibit drug resistance is to measure the cytotoxicity of drugs in multidrug-resistant human tumor cell lines. Since MDR1 normally lowers the concentration of cytotoxic agents to subtoxic concentrations by extruding them from the cell, inhibition of MDR1 would be expected to enhance cytotoxicity.
In these studies, adriamycin, vincristine, and vinblastine, in originally ineffective concentrations, become effectively cytotoxic in the presence of 1-10 μg/ml of Reversins 121 or 205. FIGS. 10A and 10B present such an experiment for Reversin 205 using K562 human erythroblastoid tumor cells and their adriamycin-selected multidrug-resistant subline. […]

The subject of another data set is P388-MDR cells. Kind of data set: Mouse P388-MDR leukemia model, survival. It is filed as in vivo. As to conditions: 1 mg/kg/day for 6 days, mice injected with P388-MDR cells. The text has this:
(§2) In vivo animal studies for the effectiveness of Reversins can be conducted using any suitable animal model system known to those skilled in the art. One example of an appropriate system is the mouse P388 leukemia model system (Tsurouo et al., supra). This animal model is widely accepted for testing the effect of cytotoxic antileukemic agents or response-modifier compounds.
(§3) Inbred (DBA×black F1) mice received 10^6 P388 leukemia cells by intraperitoneal injection. The survival of the mice was followed. The mice were injected with control P388 cells, as well as with P388 cells that had been selected under drug exposure. Drug exposure induced over-expression of the MDR1 protein (P388-MDR cells).
(§4) The mice injected with the P388 cells were treated with doxorobicin (adriamycin) in a dose of 1 mg/kg/day for 6 days after the injection of the P388 cells. […] Reversin can be administered to the animals in a dose of 2 mg/kg, a level which has no toxic effect on the control animals, as discussed above.

In the next data set the test system is control P388 cells. Put plainly: Mouse P388 leukemia model, survival. It is filed as in vivo. Particulars: 1 mg/kg/day for 6 days, mice injected with control P388 cells.
Source text: as §2, §3, §4

The target in data set [5] is T1, MDR1. Kind of data set: Flow-cytometric fluorescent dye uptake in multidrug-resistant leukocytes of a leukemic patient. It is filed as cell-based. Details: endogenous in cells; host or cells: white blood cells isolated from the blood of a leukemic patient. Particulars: 5 μM, 37° C., 10 minutes, FIG. 8. Here is the method:
Fluorescence measurements were done in 60 sec scanning periods using a Cytoronabsolut instrument (Ortho Diagnostic Systems, NJ). The excitation was set to 488 nm. Green fluorescence was measured with a filter with a range of 515-548 nm, while red fluorescence was measured above 620 nm.
By using the some fluorescent dye extrusion assay described above the in vitro effects of Reversins on the multidrug-resistant leukocytes of a leukemic patient were studied. Cells were isolated by withdrawing blood from the patient, and isolating white blood cells by centrifugation. Cells can be isolated from other types of tumors by biopsy. A flow cytometer was used to measure fluorescent dye loading of individual cells, which had been previously shown to express MDR1, in the absence or presence of Reversin 205 (FIG. 8). The uptake of fluorescent dye under these conditions models the uptake of cytotoxic drugs into the tumor cells. Fluorescent dye uptake was measured at 37° C. for 10 minutes. […] Further details for the method are provided by Hollo et al., supra.

The target in data set [6] is T1, MDR1. Kind of data set: Fluorescent dye (Fura-2 AM) extrusion assay in MDR1-transfected NIH 3T3 fibroblasts. As to conditions: MDR1-expressing fibroblasts, FIG. 6.
Source text: as §5
The test system of the next data set is control NIH 3T3 cells. Kind of data set: Fluorescent dye accumulation in fibroblasts which do not overexpress MDR1. It is filed as cell-based, mouse. As to conditions: fibroblasts which do not overexpress MDR1, FIG. 6. Here is the method:
NIH 3T3 cells were cultured under standard conditions in D-MEM medium. […] Before each experiment the cells were trypsinized, then washed and stored in D-MEM medium at 37° C. KBV1 (MDR1^+) and KB3 (MDR1^-) human tumor cells were also cultured in D-MEM, which K562 human tumor cells were grown in RPMI medium, supplemented with 10% FCS.
Human MDR1-transfected mouse fibroblasts and MDR1-expressing human tumor cells actively extrude the AM forms of several fluorescent indicators, lowering the level of intracellular fluorescence in cells with active multidrug transport.
Dye uptake was measured by incubating 2×10^6 cells/ml D-MEM medium at 37° C. in the presence of 0.5 μM Fura-2 AM (added in 5 mM stock solution in DMSO), then rapidly spinning the cells (15 sec, 12,000×g), and rinsing the pellet with HPM1 medium (containing 120 mM NaCl, 5 mM kcl, 0.4 mM MgCl2, 0.04 mM CaCl2, 10 mM HEPES-Na (pH 7.4), 10 mM NaHCO3, 10 mM glucose, and 5 mM Na2 HPO4). The cells were resuspended in 2 ml HPM1 and fluorescence was measured with rapid stirring in a Hitachi F-4000 fluorescent spectrophotometer. The excitation wavelength was 340 nm, and emission was measured at 410 nm. Maximum fluorescence and dye concentration were measured after the addition of 0.5% Triton X-100 and 2 mM CaCl2 to the medium. The dye concentration was calibrated based on the measurements of free acid dye fluorescence in the same instrument under identical conditions.

[7] abbreviates: intraperitoneal, 2-2.5 mg/kg twice daily for three days.
Setting [8] is: intravenous, about 100-125 μg/kg twice daily for 3 days.

Where two headings read alike, the source gives them in different places. Peptide text beside a SMILES is read from it. * marks the point of attachment. Cbz = O=C(OCc1ccccc1)*; Boc = CC(C)(C)OC(=O)*; OBn = c1ccc(CO*)cc1; OtBu = CC(C)(C)O* Where only a bound is given, the exact number is not on record here.

T1 sequence (P08183 whole entry): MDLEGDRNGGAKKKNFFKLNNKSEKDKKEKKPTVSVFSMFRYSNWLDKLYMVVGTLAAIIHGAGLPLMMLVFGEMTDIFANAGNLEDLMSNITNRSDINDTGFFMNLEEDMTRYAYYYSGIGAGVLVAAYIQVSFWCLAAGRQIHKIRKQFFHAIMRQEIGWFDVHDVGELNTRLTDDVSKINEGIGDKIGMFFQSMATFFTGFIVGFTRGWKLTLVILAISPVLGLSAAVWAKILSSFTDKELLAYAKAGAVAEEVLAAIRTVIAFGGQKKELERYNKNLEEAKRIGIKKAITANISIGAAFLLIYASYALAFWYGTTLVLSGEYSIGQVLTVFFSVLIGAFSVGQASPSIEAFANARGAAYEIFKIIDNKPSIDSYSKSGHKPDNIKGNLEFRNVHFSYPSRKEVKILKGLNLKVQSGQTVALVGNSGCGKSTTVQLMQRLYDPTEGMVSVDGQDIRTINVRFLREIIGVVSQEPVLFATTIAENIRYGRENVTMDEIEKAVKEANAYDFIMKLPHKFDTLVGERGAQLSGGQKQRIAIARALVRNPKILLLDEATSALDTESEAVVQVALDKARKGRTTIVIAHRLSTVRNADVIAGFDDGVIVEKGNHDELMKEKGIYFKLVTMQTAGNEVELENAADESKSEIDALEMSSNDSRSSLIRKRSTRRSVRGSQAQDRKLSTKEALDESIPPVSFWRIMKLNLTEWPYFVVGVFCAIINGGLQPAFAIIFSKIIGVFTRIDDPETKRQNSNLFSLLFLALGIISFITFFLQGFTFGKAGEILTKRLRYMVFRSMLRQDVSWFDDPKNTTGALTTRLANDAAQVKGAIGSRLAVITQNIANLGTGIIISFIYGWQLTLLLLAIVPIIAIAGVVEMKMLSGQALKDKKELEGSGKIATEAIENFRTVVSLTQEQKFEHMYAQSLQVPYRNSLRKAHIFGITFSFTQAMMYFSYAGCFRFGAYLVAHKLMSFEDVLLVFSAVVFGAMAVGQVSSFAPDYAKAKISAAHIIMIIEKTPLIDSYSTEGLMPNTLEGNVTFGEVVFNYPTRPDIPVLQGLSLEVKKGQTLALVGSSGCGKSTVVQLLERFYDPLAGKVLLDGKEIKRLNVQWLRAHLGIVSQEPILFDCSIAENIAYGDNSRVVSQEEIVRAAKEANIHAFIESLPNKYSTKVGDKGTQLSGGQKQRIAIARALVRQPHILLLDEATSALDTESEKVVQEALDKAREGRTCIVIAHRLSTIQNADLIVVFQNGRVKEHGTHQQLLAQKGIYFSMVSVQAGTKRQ

For the compound `C=C[C@H]1C[N@@]2CC[C@H]1C[C@H]2[C@H](O)c1ccnc2ccc(OC)cc12` [quinine, reference compound], the “stimulation of MDR1-ATPase” value at MDR1 [1] was “stimulated”.

In the case of `CC(C)(C)OC(=O)N[C@@H](CC(=O)OCc1ccccc1)C(=O)N[C@@H](CCCCNC(=O)OCc1ccccc1)C(=O)OC(C)(C)C` [Reversin 121, BOC-Asp(OBzl)-Lys(Z)-OtBu] (Boc-Asp(OBn)-Lys(Cbz)-OtBu), in data set [2] (setting [7]), the “acute or subacute toxicity” value was “no acute or subacute toxicity”. Besides, in [2] (setting [8]), the “acute or subacute toxicity” value is “no acute or subacute toxicity”. Also, at MDR1 [1], the “half-maximal activating concentration (Ka) of MDR1-ATPase” value is listed as “approximately 60 nM” and the “stimulation of MDR1-ATPase” value is “greatly stimulated”. In the data set on KBV1 cells, the cytotoxicity without vinblastine entry is given as “cytotoxic”. In addition, the “inhibition of Fura2-AM dye extrusion” value against MDR1 [3] is recorded as “inhibit this dye extrusion”. Moreover, the “Reversin concentration at which originally ineffective adriamycin, vincristine and vinblastine become effectively cytotoxic” value in data set [4] lay in the range of 1 to 10 µg/mL.

Take `COc1cccc2c1C(=O)c1c(O)c3c(c(O)c1C2=O)C[C@@](O)(C(=O)CO)C[C@@H]3O[C@H]1C[C@H](N)[C@H](O)[C@H](C)O1` [adriamycin]: in the data set on P388-MDR cells, the prolongation of lifetime result is “did not significantly prolong”. This compound displayed a survival time in the data set with control P388 cells above 30 days.

Turning to `COC(=O)[C@H](CCCCNC(=O)[C@H](CCC(=O)OCc1ccccc1)NC(=O)OC(C)(C)C)NC(=O)[C@H](CCC(=O)OCc1ccccc1)NC(=O)OC(C)(C)C` [Reversin 205, N^α, N^ε -bis[BOC-Glu(OBzl)]-Lys-OMe], in data set [2] (setting [7]), the “acute or subacute toxicity” value was “no acute or subacute toxicity”. The “acute or subacute toxicity” value in [2] (setting [8]) is “no acute or subacute toxicity”. At MDR1 [5], the “dye extrusion by MDR1” value is given as “blocked dye extrusion” and the fluorescent dye uptake result is “significantly increased”. For the same compound, on MDR1 [1], the “concentration giving strong inhibition of the MDR1-ATPase” value is on record as “above 1 μM”, the “half-maximal activating concentration (Ka) of MDR1-ATPase” value is on record as “about 30 nM” and the “stimulation of MDR1-ATPase” value is reported as “greatly stimulated”. Also, the “inhibition of Fura2-AM dye extrusion” value against MDR1 [3] was “inhibit this dye extrusion”. Further, the “Reversin concentration at which originally ineffective adriamycin, vincristine and vinblastine become effectively cytotoxic” value in data set [4] is 1 to 10 µg/mL.

Take `[Na+].[Na+].[Na+].[O]=[V]([O-])([O-])[O-]` [sodium orthovanadate]: at MDR1 [6], the “block of MDR1-specific dye-AM extrusion” value is “blocked”. In addition, in the data set with control NIH 3T3 cells, the “effect on dye accumulation” value is recorded as “no effect”.

For the compound `CC[C@]1(O)C[C@H]2CN(CCc3c([nH]c4ccccc34)[C@@](C(=O)OC)(c3cc4c(cc3OC)N(C=O)[C@H]3[C@@](O)(C(=O)OC)[C@H](OC(C)=O)[C@]5(CC)C=CCN6CC[C@]43[C@@H]65)C2)C1` [vincristine, reference compound], the “stimulation of MDR1-ATPase” value on MDR1 [1] is “stimulated”. On MDR1 [3], the “block of MDR1-specific dye-AM extrusion” value was “blocked” and the “inhibition of Fura2-AM dye extrusion” value was “inhibit this dye extrusion”. The “effect on dye accumulation” value in the data set on control NIH 3T3 cells is “no effect”.

For the compound `COc1ccc(CCN(C)CCCC(C#N)(c2ccc(OC)c(OC)c2)C(C)C)cc1OC` (centres unmarked) [verapamil], in the data set on control NIH 3T3 cells, the “effect on dye accumulation” value is given as “no effect”.
